Laboratory results taken from patent US8227468B2, “Cathepsin S inhibitor compounds” (Eli Lilly and Company, priority 2010, dated 2012).

Assays:
human cathepsin S = biological target: T1, human cathepsin S (Homo sapiens, UniProt P25774); assay: human cathepsin S enzyme inhibitor assay; type: biochemical
T1 construct: purchased Calbiochem
Experimental: (§1) Potency assays for human cathepsin S and mouse cathepsin S and selectivity assays for human cathepsins L, B, K, V, and F are described below. The experimental conditions and/or materials of each assay differ slightly and therefore such differences are noted either directly within the general assay conditions or coded according to the respective enzyme assay using designations 1a through 1 g in Table 1 immediately following the general assay conditions.
(§2) Test compounds are prepared in DMSO to make up a 10 mM stock solution. The stock solution is serially diluted in DMSO to obtain a ten-point dilution curve with a final compound concentration range 1a in a 96-well round-bottom plate before conducting the in vitro enzymatic assay.
(§3) Amount 1c of substrate, benzyloxycarbonyl-L-leucyl-L-arginine-4-methyl-coumaryl-7-amide (Peptide Institute), prepared in assay buffer, is added to each well of the plate for a final concentration 1d. Amount 1e of the respective enzyme, described immediately hereafter, prepared in assay buffer is added to each well of the plate containing substrate and test compound resulting in a final concentration 1f to initiate the reaction. • Human cathepsins S, L, K, and V: Obtained from Calbiochem. • Mouse cathepsin S: Briefly, mouse cathepsin S is cloned in baculovirus using a mCathepsin S-pAN51(T760) construct containing a histidine tag. […]

human cathepsin K = biological target: T2, human cathepsin K (Homo sapiens, UniProt P43235); assay: human cathepsin K enzyme inhibitor (selectivity) assay; type: biochemical
T2 construct: purchased Calbiochem
T2 sequence (P43235 115-329): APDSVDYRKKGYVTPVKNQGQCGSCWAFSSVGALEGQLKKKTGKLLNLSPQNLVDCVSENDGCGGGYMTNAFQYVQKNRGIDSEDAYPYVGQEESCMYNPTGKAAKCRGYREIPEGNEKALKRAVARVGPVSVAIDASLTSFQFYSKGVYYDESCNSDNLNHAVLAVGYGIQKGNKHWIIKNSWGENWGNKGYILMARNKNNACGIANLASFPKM
Experimental: as §1, §2, §3

human cathepsin B = human cathepsin B (Homo sapiens, UniProt P07858); assay: human cathepsin B enzyme inhibitor (selectivity) assay; type: biochemical
Experimental: as §1, §2, §3

mouse cathepsin S = biological target: T3, mouse cathepsin S (Mus musculus, UniProt O70370); assay: mouse cathepsin S enzyme inhibitor assay; type: biochemical
T3 construct: histidine tag; made in house
Experimental: as §1, §2, §3

p10 in PWBC = assay: p10 Accumulation Assay; type: in vivo, mouse; settings: 4 hr.; for In vivo relative p10 accumulation in PWBC: mice, relative to vehicle, normalized with tubulin, mean ± SD
Experimental: After 4 hr., whole blood (300-500 μL) is drawn from each mouse. The step of removing red blood cells is performed by adding one mL Flow Cytometry Lysing Solution™ (Santa Cruz Biotechnology, Inc.), keeping at room temperature for 10 min., centrifuging at 4000 rpm for 5 min. and then discarding the supernatant. This step is repeated once to remove the red blood cells completely. The PWBC pellet is resuspended with 50 μL CytoBuster™ Reagent (Novagen) and sonicated at high power for 5-10 sec.
The p10 amount is determined using a Western blot. […] Gels are run at 120 V for 60 min. with the NUPAGE® MES SDS running buffer (Invitrogen). Proteins are transferred to 0.2 μm nitrocellulose (BIO-RAD) at 100 V for 30 min. with NUPAGE® Transfer Buffer (Invitrogen) and 20% methanol (EMD). Blot is briefly rinsed with PBS and blocked in 10 mL in ODYSSEY® Blocking Buffer (LI-COR Biosciences) at room temperature for 60 min. For p10, the blot is incubated with primary antibody against mouse CD74 (1 μg/ml of rat anti-CD74 antibody)(BD Bioscience) in blocking buffer at 4° C. overnight. For tubulin control, the blot is incubated with rabbit anti-beta tubulin pAb (0.2 μg/ml)(Abcam) in blocking buffer at 4° C. overnight. The blot is washed with washing buffer (DPBS from HyClone) with 0.01% polysorbate 20 four times for 10 min. each. The blot is then incubated with secondary antibody at room temperature for 60 min. For p10, ALEXA FLUOR® 680 goat anti rat IgG (1:5000 dilution)(Invitrogen) is used. For tubulin, ALEXA FLUOR® 680 goat anti rabbit IgG (1:5000 dilution)(Invitrogen). The blot is again washed as described above and placed in PBS for scanning.
The images are captured by scanning on an ODYSSEY® Infrared Imager (LI-COR Biosciences). The p10 amount is analyzed with ODYSSEY® software and normalized with the tubulin amount. The data are statistically analyzed with JMP® 7 software (Cary, N.C.). Values are represented as means±standard deviation.

human cathepsin V = biological target: T4, human cathepsin V (Homo sapiens, UniProt O60911); assay: human cathepsin V enzyme inhibitor (selectivity) assay; type: biochemical
T4 construct: purchased Calbiochem
T4 sequence (O60911 114-334): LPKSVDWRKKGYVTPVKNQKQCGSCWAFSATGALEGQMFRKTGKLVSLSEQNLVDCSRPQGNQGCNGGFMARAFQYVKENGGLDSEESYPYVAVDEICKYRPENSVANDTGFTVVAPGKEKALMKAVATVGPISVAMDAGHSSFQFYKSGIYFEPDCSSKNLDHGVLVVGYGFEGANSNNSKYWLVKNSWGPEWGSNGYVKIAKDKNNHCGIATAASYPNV
Experimental: as §1, §2, §3

[1] = system: CaCl2-induced AAA (aortic luminal perimeter); assay: CaCl2-induced AAA Animal Efficacy Model; type: in vivo, mouse; settings: for In Vivo Percentage (%) Reduction of AAA: 129SvEv mice, aortic luminal perimeter by ultrasound, mean ± SD
Experimental: The first dose is given one day prior to surgery (p.m.) and the second dose is given the morning of surgery. […] B.i.d. dosing (a.m. and p.m.) is continued the day after surgery for 28 days. On the day of surgery, animals received analgesia ([…]®, 0.1 mg/kg) subcutaneously 10 min. pre-operatively and 3 hr. post-operatively. Mice are anesthetized by inhalation of 2% isoflurane and a laparotomy is performed. The abdominal aorta is exposed by retracting the bowel laterally with a surgical retractor and leaving the bowel in the abdominal cavity. […] Once isolated, the region of interest of the abdominal aorta is wrapped with a premeasured sterile cotton gauze soaked in 0.25 M aqueous CaCl2 solution. In sham control animals, 0.9% saline is substituted for CaCl2. After 7 min., the gauze is removed and a second CaCl2 soaked gauze (or 0.9% saline soaked gauze in sham animals) is applied. Following a second 7 minute period, the gauze is removed, the aorta is rinsed with 0.9% saline and the abdomen is closed. […] After 4 weeks of dosing as described above, the aortic luminal perimeter, area and diameter of the aortic segments that were wrapped with gauze are determined by ultrasound (Biosound Ultrasound-7.5 MHz) and statistically analyzed with JMP® 7 software (Cary, N.C.).

human cathepsin L = biological target: T5, human cathepsin L (Homo sapiens, UniProt P07711); assay: human cathepsin L enzyme inhibitor (selectivity) assay; type: biochemical
T5 construct: purchased Calbiochem
T5 sequence (P07711 114-333): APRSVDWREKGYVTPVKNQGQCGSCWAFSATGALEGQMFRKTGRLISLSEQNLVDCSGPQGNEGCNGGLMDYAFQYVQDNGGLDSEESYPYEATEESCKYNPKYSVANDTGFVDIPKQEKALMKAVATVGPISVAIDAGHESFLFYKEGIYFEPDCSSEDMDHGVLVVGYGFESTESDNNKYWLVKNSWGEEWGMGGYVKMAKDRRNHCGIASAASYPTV
Experimental: as §1, §2, §3

T1 sequence (P25774 115-331): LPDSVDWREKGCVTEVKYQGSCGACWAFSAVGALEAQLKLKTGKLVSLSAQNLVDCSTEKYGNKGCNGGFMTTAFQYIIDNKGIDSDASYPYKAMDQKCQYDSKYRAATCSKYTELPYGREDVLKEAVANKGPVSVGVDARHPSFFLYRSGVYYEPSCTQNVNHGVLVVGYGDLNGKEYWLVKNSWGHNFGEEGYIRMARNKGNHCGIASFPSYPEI

IC50 (human cathepsin S): ~0.0102 µM
IC50 (human cathepsin K): > 100 µM
IC50 (human cathepsin B): ~94 µM
IC50 (mouse cathepsin S): ~0.0039 µM
IC50 (human cathepsin V): > 100 µM
IC50 (human cathepsin L): > 167 µM
Compound: CNC(=O)O[C@H]1CCc2ccc(N3CCN(C4COC4)CC3)cc2[C@@H]1NC(=O)c1ccc(F)cc1 [Example 2, [(1S,2S)-1-[(4-Fluorobenzoyl)amino]-7-[4-(oxetan-3-yl)piperazin-1-yl]tetralin-2-yl] N-methylcarbamate]
In vivo relative p10 accumulation in PWBC (p10 in PWBC; 3 mg/kg oral gavage): 1.1 ± 0.7 fold increase
In vivo relative p10 accumulation in PWBC (p10 in PWBC; 10 mg/kg oral gavage): 2.2 ± 1.3 fold increase
In vivo relative p10 accumulation in PWBC (p10 in PWBC; 30 mg/kg oral gavage): 4.6 ± 1.2 fold increase
effect on p10 in PWBC (in words) (p10 in PWBC; 3-30 mg/kg oral): dose dependently increase p10 in PWBC
In Vivo Percentage (%) Reduction of AAA ([1]; 1 mg/kg oral gavage b.i.d. 4 weeks): 11 ± 7%
In Vivo Percentage (%) Reduction of AAA ([1]; 3 mg/kg oral gavage b.i.d. 4 weeks): 32 ± 9%
In Vivo Percentage (%) Reduction of AAA ([1]; 10 mg/kg oral gavage b.i.d. 4 weeks): 43 ± 9%
In Vivo Percentage (%) Reduction of AAA ([1]; 30 mg/kg oral gavage b.i.d. 4 weeks): 52 ± 7%
effect on aortic luminal perimeter (in words) ([1]; 1-30 mg/kg oral b.i.d. 4 weeks): reduce the aortic luminal perimeter in a dose-dependent manner
